The target of the assay is human Factor XIa (Homo sapiens (Human), UniProt P03951). The assay is described as follows: Factor XIa Assay. It is filed as biochemical. The note with it: read-out: FXIa Ki. The procedure, abridged: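 Purified human FXIa (40 pM final) hydrolysing fluorogenic Z-Gly-Pro-Arg-AFC (100 μM) in 50 mM HEPES pH 7.4, 150 mM NaCl, 5 mM CaCl2, 0.1% PEG 8000, at room temperature or 37° C. Initial velocities measured after enzyme–inhibitor equilibration; Ki from Vo/Vi versus [I], assuming competitive inhibition.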
human Factor XIa, sequence (P03951 388-625): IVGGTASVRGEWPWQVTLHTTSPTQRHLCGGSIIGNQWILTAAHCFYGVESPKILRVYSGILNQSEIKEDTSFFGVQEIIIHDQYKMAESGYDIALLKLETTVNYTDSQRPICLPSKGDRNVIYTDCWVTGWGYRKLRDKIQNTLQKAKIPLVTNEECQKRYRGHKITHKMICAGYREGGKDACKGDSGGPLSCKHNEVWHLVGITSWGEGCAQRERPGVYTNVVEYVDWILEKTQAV
human Factor XIa, sequence (P03951 19-387 partner): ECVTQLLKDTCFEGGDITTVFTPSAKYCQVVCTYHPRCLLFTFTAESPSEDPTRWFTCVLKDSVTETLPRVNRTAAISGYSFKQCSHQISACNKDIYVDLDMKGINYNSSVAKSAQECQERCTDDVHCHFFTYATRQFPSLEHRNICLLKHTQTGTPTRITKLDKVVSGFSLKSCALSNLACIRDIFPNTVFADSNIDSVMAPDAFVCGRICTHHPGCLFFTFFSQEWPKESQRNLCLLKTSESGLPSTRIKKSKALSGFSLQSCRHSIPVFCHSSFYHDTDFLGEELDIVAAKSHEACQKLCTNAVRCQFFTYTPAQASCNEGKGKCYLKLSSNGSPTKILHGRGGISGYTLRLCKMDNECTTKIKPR

Counter-ions that a name gives are not always drawn.

For the molecule `O=C1Nc2ccc(Cl)cc2C2(CCN(C(=O)[C@H](Cc3ccccc3)NC(=O)c3ccc(-c4nnn[nH]4)cc3)C2)O1` (stereo partly drawn) [Example 151, N-((2S)-1-(6-chloro-2-oxo-1,2-dihydrospiro[benzo[d][1,3]oxazine-4,3′-pyrrolidin]-1′-yl)-1-oxo-3-phenylpropan-2-yl)-4-(1H-tetrazol-5-yl)benzamide], the Ki was found to be 1780 nM.

As for `N#Cc1ccc(C(=O)N[C@@H](Cc2ccccc2)C(=O)N2CCC3(C2)OC(=O)Nc2ccc(Cl)cc23)cn1` (some centres unmarked) [Example 152], the Ki came out at 1020 nM.

Take `O=C1Nc2ccc(Cl)cc2C2(CCN(C(=O)[C@H](Cc3ccccc3)NC(=O)c3ccc4[nH]ccc4n3)C2)O1` (some centres unmarked) [Example 153]: the Ki is 488 nM.

As for `O=C1Nc2ccc(Cl)cc2C2(CCN(C(=O)[C@H](Cc3ccccc3)NC(=O)c3ccccc3-n3cccn3)C2)O1` (stereo partly drawn) [Example 154, N-((2S)-1-(6-chloro-2-oxo-1,2-dihydrospiro[benzo[d][1,3]oxazine-4,3′-pyrrolidin]-1′-yl)-1-oxo-3-phenylpropan-2-yl)-2-(1H-pyrazol-1-yl)benzamide], the inhibition constant Ki turned out to be 2520 nM.

With `O=C1Nc2ccc(Cl)cc2C2(CCN(C(=O)[C@H](Cc3ccccc3)NC(=O)c3ccnc(O)c3)C2)O1` (some centres unmarked) [Example 155], the inhibitory constant (Ki) was found to be 169 nM.

For the molecule `O=C1Nc2ccc(Cl)cc2C2(CCN(C(=O)[C@H](Cc3ccccc3)NC(=O)c3ccon3)C2)O1` (some centres unmarked) [Example 156], the inhibition constant (Ki) is 2150 nM.

Turning to `O=C1Nc2ccc(Cl)cc2C2(CCN(C(=O)[C@H](Cc3ccccc3)NC(=O)C3CCC(CO)CC3)C2)O1` (some centres unmarked) [Example 157], the inhibition constant (Ki) came out at 3350 nM.

As to `O=C1Nc2ccc(Cl)cc2C2(CCN(C(=O)[C@H](Cc3ccccc3)NC(=O)c3ccc(CO)nc3)C2)O1` (some centres unmarked) [Example 158], the inhibition constant Ki was 752 nM.

Take `O=C1Nc2ccc(Cl)cc2C2(CCN(C(=O)[C@H](Cc3ccccc3)NC(=O)c3ccc(-n4ccnc4)nc3)C2)O1` (some centres unmarked) [Example 159]: the Ki came to 743 nM.

`O=C1Nc2ccc(Cl)cc2C2(CCN(C(=O)[C@H](Cc3ccccc3)NC(=O)c3ccc(C4(C(=O)O)CC4)cc3)C2)O1` (stereo partly drawn) [Example 160, 1-(4-(((2S)-1-(6-chloro-2-oxo-1,2-dihydrospiro[benzo[d][1,3]oxazine-4,3′-pyrrolidin]-1′-yl)-1-oxo-3-phenylpropan-2-yl)carbamoyl)phenyl)cyclopropanecarboxylic acid]: the inhibition constant (Ki) amounted to 5000 nM.

Turning to `O=C1Nc2ccc(Cl)cc2C2(CCN(C(=O)[C@H](Cc3ccccc3)NC(=O)C3(c4ccc(C(=O)O)cc4)CC3)C2)O1` (some centres unmarked) [Example 161], the Ki is 4490 nM.

With `O=C1Nc2ccc(Cl)cc2C2(CCN(C(=O)[C@H](Cc3ccccc3)NC(=O)c3ccc(NC(=O)C(F)(F)F)cc3)C2)O1` (stereo partly drawn) [Example 162, N-((2S)-1-(6-chloro-2-oxo-1,2-dihydrospiro[benzo[d][1,3]oxazine-4,3′-pyrrolidin]-1′-yl)-1-oxo-3-phenylpropan-2-yl)-4-(2,2,2-trifluoroacetamido)benzamide], the Ki turned out to be 594 nM.

For the molecule `CS(=O)(=O)Nc1ccc(C(=O)N[C@@H](Cc2ccccc2)C(=O)N2CCC3(C2)OC(=O)Nc2ccc(Cl)cc23)cc1` (stereo partly drawn) [Example 163, N-((2S)-1-(6-chloro-2-oxo-1,2-dihydrospiro[benzo[d][1,3]oxazine-4,3′-pyrrolidin]-1′-yl)-1-oxo-3-phenylpropan-2-yl)-4-(methylsulfonamido)benzamide], the Ki is 63.2 nM.

On to `COC(=O)Nc1ccc(C(=O)N[C@@H](Cc2ccccc2)C(=O)N2CCC3(C2)OC(=O)Nc2ccc(Cl)cc23)nc1` (some centres unmarked) [Example 166], for which the inhibitory constant (Ki) was found to be 184 nM.

Consider `O=C1Nc2ccc(Cl)cc2C2(CCN(C(=O)[C@H](Cc3ccccc3)NC(=O)c3cnc4[nH]c(=O)oc4c3)C2)O1` (some centres unmarked) [Example 167], for which the Ki came out at 4160 nM.

For the molecule `CC(=O)Nc1cc(C(=O)N[C@@H](Cc2ccccc2)C(=O)N2CCC3(C2)OC(=O)Nc2ccc(Cl)cc23)ccn1` (some centres unmarked) [Example 168], the inhibition constant (Ki) was determined as 576 nM.

Regarding `O=C1Nc2ccc(Cl)cc2C2(CCN(C(=O)[C@H](Cc3ccccc3)NC(=O)c3cccc(N4CCNC4=O)c3)C2)O1` (stereo partly drawn) [Example 169, N-((2S)-1-(6-chloro-2-oxo-1,2-dihydrospiro[benzo[d][1,3]oxazine-4,3′-pyrrolidin]-1′-yl)-1-oxo-3-phenylpropan-2-yl)-3-(2-oxoimidazolidin-1-yl)benzamide], the inhibitory constant (Ki) was found to be 774 nM.

Take `Cc1nc(N)sc1C(=O)N[C@@H](Cc1ccccc1)C(=O)N1CCC2(C1)OC(=O)Nc1ccc(Cl)cc12` (some centres unmarked) [Example 170]: the Ki is 508 nM.

For `O=C1Nc2ccc(Cl)cc2C2(CCN(C(=O)[C@H](Cc3ccccc3)NC(=O)c3ccc4c(c3)C(=O)NC4)C2)O1` (some centres unmarked) [Example 172], the inhibition constant (Ki) is 328 nM.

Consider `C[C@@H]1NC(=O)O[C@H]1c1cccc(C(=O)N[C@@H](Cc2ccccc2)C(=O)N2CCC3(C2)OC(=O)Nc2ccc(Cl)cc23)c1` (stereo partly drawn) [Example 173, N-((2S)-1-(6-chloro-2-oxo-1,2-dihydrospiro[benzo[d][1,3]oxazine-4,3′-pyrrolidin]-1′-yl)-1-oxo-3-phenylpropan-2-yl)-3-((4S,5S)-4-methyl-2-oxooxazolidin-5-yl)benzamide], for which the inhibitory constant (Ki) is 385 nM.

For `O=C1Cc2ccc(C(=O)N[C@@H](Cc3ccccc3)C(=O)N3CCC4(C3)OC(=O)Nc3ccc(Cl)cc34)cc2N1` (some centres unmarked) [Example 174], the inhibition constant (Ki) worked out at 261 nM.

Turning to `Nc1nc(C(=O)N[C@@H](Cc2ccccc2)C(=O)N2CCC3(C2)OC(=O)Nc2ccc(Cl)cc23)cs1` (some centres unmarked) [Example 175], the Ki came out at 212 nM.

`O=C1Nc2ccc(Cl)cc2C2(CCN(C(=O)[C@H](Cc3ccccc3)NC(=O)c3ccc4[nH]cnc4c3)C2)O1` (some centres unmarked) [Example 176]: the inhibition constant Ki stood at 59.8 nM.

Regarding `O=C1Nc2ccc(Cl)cc2C2(CCN(C(=O)[C@H](Cc3ccccc3)NC(=O)c3cc(O)ncn3)C2)O1` (some centres unmarked) [Example 177], the inhibition constant Ki was 559 nM.

For the molecule `O=C1Nc2ccc(Cl)cc2C2(CCN(C(=O)[C@H](Cc3ccccc3)NC(=O)c3ccc(O)c(F)c3)C2)O1` (stereo partly drawn) [Example 178, N-((2S)-1-(6-chloro-2-oxo-1,2-dihydrospiro[benzo[d][1,3]oxazine-4,3′-pyrrolidin]-1′-yl)-1-oxo-3-phenylpropan-2-yl)-3-fluoro-4-hydroxybenzamide], the Ki came out at 251 nM.

In the case of `N=C(N)Nc1ccc(C(=O)N[C@@H](Cc2ccccc2)C(=O)N2CCC3(C2)OC(=O)Nc2ccc(Cl)cc23)cc1` (stereo partly drawn) [Example 179, N-((2S)-1-(6-chloro-2-oxo-1,2-dihydrospiro[benzo[d][1,3]oxazine-4,3′-pyrrolidin]-1′-yl)-1-oxo-3-phenylpropan-2-yl)-4-guanidinobenzamide], the Ki is 454 nM.

Consider `Nc1nc2cc(C(=O)N[C@@H](Cc3ccccc3)C(=O)N3CCC4(C3)OC(=O)Nc3ccc(Cl)cc34)ccc2[nH]1` (some centres unmarked) [Example 180], for which the Ki is 56.7 nM.

Consider `O=C1Nc2ccc(Cl)cc2C2(CCN(C(=O)[C@H](Cc3ccccc3)NC(=O)c3ccc4cn[nH]c4c3)C2)O1` (some centres unmarked) [Example 182], for which the inhibitory constant (Ki) was 137 nM.

With `O=C1Nc2ccc(Cl)cc2C2(CCN(C(=O)[C@H](Cc3ccccc3)NC(=O)c3ccc4oc(=O)[nH]c4c3)C2)O1` (some centres unmarked) [Example 183], the Ki came to 86.9 nM.

With `O=C1Nc2ccc(Cl)cc2C2(CCN(C(=O)[C@H](Cc3ccccc3)NC(=O)c3ccc4c(c3)S(=O)(=O)NC4=O)C2)O1` (some centres unmarked) [Example 184], the Ki stood at 5000 nM.

Regarding `Nc1n[nH]c2ccc(C(=O)N[C@@H](Cc3ccccc3)C(=O)N3CCC4(C3)OC(=O)Nc3ccc(Cl)cc34)cc12` (some centres unmarked) [Example 185], the inhibition constant Ki came to 96 nM.

As for `COCCOC(=O)Nc1ccc(C(=O)N[C@@H](Cc2ccccc2)C(=O)N2CCC3(C2)OC(=O)Nc2ccc(Cl)cc23)cn1` (some centres unmarked) [Example 186], the inhibition constant (Ki) amounted to 166 nM.

`O=C1CCCc2cc(C(=O)N[C@@H](Cc3ccccc3)C(=O)N3CCC4(C3)OC(=O)Nc3ccc(Cl)cc34)ccc2N1` (some centres unmarked) [Example 187]: the Ki was found to be 151 nM.

On to `O=C(Nc1ccc(C(=O)N[C@@H](Cc2ccccc2)C(=O)N2CCC3(C2)OC(=O)Nc2ccc(Cl)cc23)cc1)OCCN1CCNCC1` (stereo partly drawn) [Example 190, 2-(Piperazin-1-yl)ethyl (4-(((2S)-1-(6-chloro-2-oxo-1,2-dihydrospiro[benzo[d][1,3]oxazine-4,3′-pyrrolidin]-1′-yl)-1-oxo-3-phenylpropan-2-yl)carbamoyl)phenyl)carbamate 2 trifluoroacetic acid salt], for which the inhibition constant Ki was determined as 76.7 nM.

For the molecule `O=C1C[S+]([O-])c2cc(C(=O)N[C@@H](Cc3ccccc3)C(=O)N3CCC4(C3)OC(=O)Nc3ccc(Cl)cc34)ccc2N1` (stereo partly drawn) [Example 192, N-((2S)-1-(6-chloro-2-oxo-1,2-dihydrospiro[benzo[d][1,3]oxazine-4,3′-pyrrolidine]-1′-yl)-1-oxo-3-phenylpropan-2-yl)-3-oxo-3,4-dihydro-2H-benzo[b][1,4]thiazine-7-carboxamide 1-oxide], the inhibition constant Ki turned out to be 99.7 nM.

In the case of `O=C1CS(=O)(=O)c2cc(C(=O)N[C@@H](Cc3ccccc3)C(=O)N3CCC4(C3)OC(=O)Nc3ccc(Cl)cc34)ccc2N1` (stereo partly drawn) [Example 193, N-((2S)-1-(6-chloro-2-oxo-1,2-dihydrospiro[benzo[d][1,3]oxazine-4,3′-pyrrolidine]-1′-yl)-1-oxo-3-phenylpropan-2-yl)-3-oxo-3,4-dihydro-2H-benzo[b][1,4]thiazine-7-carboxamide 1,1-dioxide], the Ki amounted to 145 nM.

Regarding `COC(=O)Nc1ccc(C(=O)N[C@@H](Cc2ccccc2)C(=O)N2CCC3(C2)OC(=O)Nc2ccc(Cl)cc23)s1` (stereo partly drawn) [Example 196, Methyl (5-(((2S)-1-(6-chloro-2-oxo-1,2-dihydrospiro[benzo[d][1,3]oxazine-4,3′-pyrrolidin]-1′-yl)-1-oxo-3-phenylpropan-2-yl)carbamoyl)thiophen-2-yl)carbamate], the inhibitory constant (Ki) was 63.4 nM.

For the molecule `COC(=O)Nc1ccc(C(=O)N[C@@H](CC2CC2)C(=O)N2CCC[C@@]3(C2)OC(=O)Nc2ccc(Cl)cc23)c(Cl)c1` [Example 201, methyl (3-chloro-4-(((S)-1-((R)-6-chloro-2-oxo-1,2-dihydrospiro[benzo[d][1,3]oxazine-4,3′-piperidin]-1′-yl)-3-cyclopropyl-1-oxopropan-2-yl)carbamoyl)phenyl)carbamate], the Ki amounted to 91.3 nM.

By Ki is commonly meant a measure of affinity in units of concentration, obtained from inhibition or displacement.

Source of the values: patent US10093683B2, “Factor XIa inhibitors” (Merck Sharp & Dohme Corp., priority 2014, dated 2018).
